Test systems include UACC-62 melanoma; HCT-116 colon; HCC-2998 colon; SK-MEL-2 melanoma; NCI-H522 lung; SN12C renal; SNB-75 CNS; SNB-19 CNS.
What all share (assay): NCI-60 cell line screen, 48 h

Each structure is given as a SMILES string. Where “and” joins values, the source holds several entries; their conditions need not be identical. Equal values may be shown once.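 96-well plates; 48 h exposure; 5 concentrations. Endpoints by linear interpolation between flanking doses. Not reached: highest tested concentration assigned. The concentration for 50% growth inhibition is given as GI50. TGI: total growth inhibition.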

`CC(=O)OCC12CN(C#N)C3C4COC(CC41)C1(C(=O)N(C)c4ccccc41)C32` (configuration not stated): the TGI in the experiment on UACC-62 melanoma was determined as 52.2 µM; with HCT-116 colon, 40.7 µM; in the experiment with HCC-2998 colon, 86.6 µM; with SK-MEL-2 melanoma it was 63.6 µM; in the experiment on NCI-H522 lung, 24.7 µM; in the experiment on SN12C renal it was 73.1 µM. In the experiment with SNB-75 CNS, this compound gave a TGI of 91.4 µM.

Turning to `N#CC(C#N)=CNCCN1CCN(C=C(C#N)C#N)CC1`, the TGI in the experiment on UACC-62 melanoma, in the experiment with SNB-19 CNS, in the experiment on HCT-116 colon, in the experiment with SK-MEL-2 melanoma, in the experiment with NCI-H522 lung and in the experiment on SN12C renal was more than 100 µM each time.

Take `O=C(CN1CCN(Cc2ccccc2Cl)CC1)NC1CC(=O)c2c(Br)sc(Br)c21` (configuration not stated): the GI50 in the experiment with UACC-62 melanoma is 16.3 µM; with SNB-19 CNS, 18.6 µM; in the experiment on HCT-116 colon it was 17.3 µM; in the experiment on HCC-2998 colon, 19.8 µM; in the experiment on SK-MEL-2 melanoma, 15.7 µM; in the experiment with NCI-H522 lung, 2 µM. In addition, in the experiment with SN12C renal, the GI50 is 19.1 µM. The TGI came out at 31 µM in the experiment on UACC-62 melanoma; 33.1 µM with SNB-19 CNS; 32.9 µM in the experiment on HCT-116 colon; 35.1 µM in the experiment with HCC-2998 colon; 31.4 µM with SK-MEL-2 melanoma; 5.06 µM in the experiment on NCI-H522 lung. Further, the TGI with SN12C renal was determined as 35.9 µM.

As for `O=C(CCCn1c2c(sc3ccccc32)c(=O)n2nnc(-c3ccccc3)c12)NCCc1cnc[nH]1`, the GI50 in the experiment with UACC-62 melanoma was 1.81 µM; in the experiment with SNB-19 CNS it was 2.97 µM; in the experiment with HCC-2998 colon it was 1.26 µM; in the experiment on SK-MEL-2 melanoma, 2.37 µM; in the experiment on NCI-H522 lung it was 0.0346 µM; with SN12C renal, less than 0.0105 µM. Moreover, the GI50 with SNB-75 CNS was 1.95 µM. For the same compound, the TGI in the experiment on UACC-62 melanoma stood at 3.39 µM; in the experiment on SNB-19 CNS, 14.7 µM; in the experiment with HCC-2998 colon, 3.41 µM; in the experiment with SK-MEL-2 melanoma, 4.98 µM; with NCI-H522 lung, 2.79 µM; in the experiment on SN12C renal, 2.01 µM. This compound also showed a TGI in the experiment on SNB-75 CNS of 3.51 µM.

`O=C1/C(=C/c2ccc([N+](=O)[O-])s2)Oc2cc(Cl)ccc21`: the GI50 with UACC-62 melanoma is 0.998 µM; in the experiment on SNB-19 CNS, 1.72 µM; in the experiment on SK-MEL-2 melanoma, 1.45 µM; in the experiment on NCI-H522 lung, 0.25 µM; in the experiment on SN12C renal, 2.36 µM; with SNB-75 CNS it was 2.04 µM. Further, the TGI in the experiment on UACC-62 melanoma is 3.14 µM; in the experiment on SNB-19 CNS, 4.52 µM; in the experiment with SK-MEL-2 melanoma, 3.33 µM; with NCI-H522 lung, 0.713 µM; in the experiment on SN12C renal it was more than 100 µM; in the experiment on SNB-75 CNS it was 11.6 µM.

Take `COc1cc2c(c(O)c1Cl)C(=O)c1c(O)cc(C[C@H](C)O)cc1[C@H]2[C@H]1c2cc(C[C@H](C)O)cc(O)c2C(=O)c2c1cc(OC)c(Cl)c2O`: the TGI was 75 µM and > 100 µM with SNB-19 CNS; 75 µM and > 100 µM in the experiment with HCT-116 colon; 75 µM and > 100 µM in the experiment with HCC-2998 colon; 75 µM and > 100 µM in the experiment on SN12C renal; 16.4 µM and 70.3 µM in the experiment on SNB-75 CNS.

Consider `O=C1Nc2ccccc2/C1=C\c1c(-c2ccccc2)nc2sccn12`, for which the GI50 in the experiment on UACC-62 melanoma was 0.798 µM; in the experiment on SNB-19 CNS, 3.53 µM; with HCT-116 colon, 1.7 µM; with SK-MEL-2 melanoma, 5.87 µM; in the experiment with NCI-H522 lung, 1.44 µM; in the experiment on SN12C renal, 2.75 µM. Also, the GI50 in the experiment on SNB-75 CNS is 6.74 µM. Moreover, the TGI with UACC-62 melanoma was 9.72 µM; in the experiment on SNB-19 CNS, more than 43.7 µM; in the experiment on HCT-116 colon, 8.96 µM; in the experiment with SK-MEL-2 melanoma, 22.6 µM; in the experiment on NCI-H522 lung, 14.6 µM; with SN12C renal, 14.4 µM. For the same compound, the TGI in the experiment with SNB-75 CNS was 28.4 µM.

In the case of `Cc1ccc([Se](=C(C(=O)c2ccccc2)C(=O)c2ccccc2)c2ccc(C)cc2)cc1`, the TGI was 51.5 µM with UACC-62 melanoma; more than 100 µM in the experiment on SNB-19 CNS; more than 100 µM in the experiment with HCT-116 colon; more than 100 µM in the experiment with SK-MEL-2 melanoma; 72.9 µM with NCI-H522 lung; 36.7 µM in the experiment on SN12C renal. Also, the TGI in the experiment with SNB-75 CNS is more than 100 µM.

On to `COC(=O)c1ccc2nc(-c3cc4ccccc4n3C)n(CCCCOc3cc4c(cc3OC)C(=O)N3CCC[C@H]3C=N4)c2c1`, for which the GI50 in the experiment with UACC-62 melanoma is 0.211 µM; with SNB-19 CNS it was 2.15 µM; in the experiment on HCT-116 colon it was 0.528 µM; with NCI-H522 lung, 0.291 µM; in the experiment with SN12C renal, 0.361 µM; with SNB-75 CNS, 0.339 µM. Also, the TGI with UACC-62 melanoma stood at 0.625 µM; with SNB-19 CNS, 7.07 µM; in the experiment with HCT-116 colon, 2.61 µM; in the experiment with SK-MEL-2 melanoma, 0.631 µM; in the experiment with NCI-H522 lung, 1.1 µM; in the experiment with SN12C renal it was 2.17 µM. Also, the TGI with SNB-75 CNS worked out at 1.35 µM.

`CC1CCCC(C(=O)CC2CC(=O)NC(=O)C2)C1=O` (configuration not stated): the TGI with UACC-62 melanoma, in the experiment with SNB-19 CNS, in the experiment with HCT-116 colon, in the experiment with HCC-2998 colon, in the experiment with SK-MEL-2 melanoma and in the experiment with SN12C renal was more than 100 µM in each case. Also, the TGI in the experiment with SNB-75 CNS was more than 100 µM.

For `CCc1ccccc1NC(=O)C(C#N)C1=C(Cl)C(=O)c2ccccc2C1=O` (configuration not stated), the TGI was determined as 31.2 µM in the experiment with UACC-62 melanoma; 72.3 µM in the experiment with SNB-19 CNS; 28.8 µM with HCT-116 colon; 37.2 µM in the experiment with SK-MEL-2 melanoma; 29.7 µM in the experiment with NCI-H522 lung; 27.9 µM in the experiment on SN12C renal. This compound yielded a TGI in the experiment on SNB-75 CNS of 35.4 µM.

`COC(=O)c1cc(NC(=O)c2cc(NC(=O)c3cc([N+](=O)[O-])n(C)c3)cn2C)cn1C`: the GI50 was 23.8 µM in the experiment on UACC-62 melanoma; 34.2 µM in the experiment with SNB-19 CNS; 31.8 µM with HCT-116 colon; 4.26 µM with HCC-2998 colon; more than 100 µM in the experiment with SK-MEL-2 melanoma; 58.9 µM in the experiment with NCI-H522 lung. Moreover, the GI50 with SN12C renal was more than 100 µM. The TGI in the experiment on UACC-62 melanoma is more than 100 µM; in the experiment with SNB-19 CNS, more than 100 µM; in the experiment on HCT-116 colon, more than 100 µM; with HCC-2998 colon, 38.2 µM; with SK-MEL-2 melanoma it was more than 100 µM; with NCI-H522 lung it was more than 100 µM. Also, the TGI with SN12C renal was more than 100 µM.

On to `COc1cc2c3c(n(CCCN(CCCN(CCCn4c5c(c6ccccc6c4=O)C(=O)c4ccccc4-5)C(=O)OC(C)(C)C)C(=O)OC(C)(C)C)c(=O)c2cc1OC)-c1cc2c(cc1C3=O)OCO2`, for which the GI50 in the experiment on UACC-62 melanoma, with SNB-19 CNS, in the experiment with HCT-116 colon, with SK-MEL-2 melanoma, in the experiment on NCI-H522 lung and in the experiment on SN12C renal was more than 100 µM in each case. The GI50 with SNB-75 CNS is more than 100 µM. The TGI in the experiment with UACC-62 melanoma, in the experiment on SNB-19 CNS, in the experiment with HCT-116 colon, in the experiment with SK-MEL-2 melanoma, in the experiment with NCI-H522 lung and with SN12C renal was more than 100 µM throughout. Moreover, the TGI with SNB-75 CNS was more than 100 µM.

`Cc1cc(Cl)nc2ccc(Cc3ccc4nc(Cl)cc(C)c4c3)cc12`: the TGI with UACC-62 melanoma, in the experiment with SNB-19 CNS, in the experiment on HCT-116 colon, in the experiment with SK-MEL-2 melanoma, in the experiment with NCI-H522 lung and with SN12C renal was more than 100 µM throughout. In the experiment with SNB-75 CNS, this compound returned a TGI of 19.8 µM.

Turning to `COc1ccc(/C=C/C(=O)c2c(O)ccc3c(C)c(C(=O)O)oc23)cc1`, the GI50 in the experiment with UACC-62 melanoma was 55 µM; in the experiment on SNB-19 CNS it was 64.9 µM; with HCT-116 colon, 49.2 µM; in the experiment with HCC-2998 colon it was 36.7 µM; with NCI-H522 lung it was 33.9 µM; in the experiment with SN12C renal, 27.5 µM. For the same compound, the TGI in the experiment with UACC-62 melanoma, in the experiment with SNB-19 CNS, in the experiment on HCT-116 colon, in the experiment with HCC-2998 colon, in the experiment with NCI-H522 lung and in the experiment with SN12C renal was more than 100 µM throughout.

Regarding `N#CC(C#N)=NNc1ccc2cn[nH]c2c1`, the TGI in the experiment with UACC-62 melanoma was more than 100 µM; with SNB-19 CNS, more than 100 µM; with HCT-116 colon, 44.7 µM; in the experiment with SK-MEL-2 melanoma, more than 100 µM; in the experiment on NCI-H522 lung, 34.8 µM; in the experiment on SN12C renal, 92.3 µM.

In the case of `COc1cc(-c2cc3ncccc3c3nc(OCCN(C)C)c4cccnc4c23)cc(OC)c1OC`, the GI50 in the experiment on UACC-62 melanoma is 0.42 µM; in the experiment on SNB-19 CNS, 0.576 µM; in the experiment on HCC-2998 colon it was 0.727 µM; with SK-MEL-2 melanoma, 0.744 µM; in the experiment with NCI-H522 lung, 0.457 µM; in the experiment on SN12C renal, 0.581 µM. For the same compound, in the experiment with SNB-75 CNS, the GI50 was 0.414 µM. Besides, the TGI stood at 2.45 µM in the experiment on UACC-62 melanoma; 29.5 µM in the experiment with SNB-19 CNS; 3.1 µM in the experiment with HCC-2998 colon; 3.71 µM in the experiment on SK-MEL-2 melanoma; 2.78 µM with NCI-H522 lung; 3.09 µM in the experiment on SN12C renal. This compound also had a TGI in the experiment with SNB-75 CNS of 2.2 µM.

With `Cc1ccc(C)c2c1C(=O)N(c1ccc(F)cc1F)C2=O`, the GI50 with UACC-62 melanoma, with SNB-19 CNS, in the experiment with HCT-116 colon, in the experiment on SK-MEL-2 melanoma, with NCI-H522 lung and in the experiment with SN12C renal was more than 100 µM in each case. Moreover, the GI50 in the experiment on SNB-75 CNS is more than 100 µM. For the same compound, the TGI in the experiment on UACC-62 melanoma, in the experiment on SNB-19 CNS, in the experiment on HCT-116 colon, in the experiment with SK-MEL-2 melanoma, with NCI-H522 lung and in the experiment on SN12C renal was more than 100 µM throughout. In the experiment with SNB-75 CNS, the TGI is more than 100 µM.

(Values after PubChem BioAssay (NCI).)
